# Measured values from patent US4578397A, “Indeno(1,2-b)pyrrole derivatives” (Yoshitomi Pharmaceutical Industries, Ltd., priority 1982, dated 1986).
# Tests used:
# [1] = tested on: picrotoxin-induced lethality; assay: Anti-picrotoxin effect (anti-lethal), oral; assay type: in vivo, male dd-mice; conditions: Mus musculus, 0.5 h, read-out: Anti-picrotoxin-lethal effect, ED50
# Experimental: 1. Anti-picrotoxin Effect
# Groups of 7-14 male dd-mice were used. Picrotoxin (5 mg/kg) was administered subcutaneously 60 minutes after the oral administration of test compound, and the 50% anti-lethal dose (ED50) was calculated from the servival rate within 30 minutes.
# [2] = tested on: bicuculline-induced tonic convulsion; assay: Anti-bicuculline effect (anti-tonic convulsion), oral; assay type: in vivo; conditions: Mus musculus, 5 min; bicuculline 0.6 mg/kg i.v. 60 min after oral test compound; protection of 50% against tonic convulsion within 5 min; male dd-mice; read-out: Anti-bicuculline-convulsive effect, ED50
# Experimental: 2. Anti-bicuculline Effect
# Groups of 4-14 male dd-mice were used. Bicuculline (0.6 mg/kg) was administered intravenously 60 minutes after the oral administration of test compound, and the ED50, the dose required to protect 50% of the animals against tonic convulsion within 5 minutes was determined.
# [3] = administered peripherally; cited from earlier work
Compound,ED50 [1] [mg/kg],ED50 [2] [mg/kg],transmission through the blood-brain barrier [3]
"Fc1ccc2c(c1)CC1CC(=S)NC21 (centres unmarked) [C, 6-Fluoro-1,2,3,3a,4,8b-hexahydro-indeno[1,2-b]pyrrol-2-thione]",45,70,
"O=C1CC2Cc3c(Cl)cccc3C2N1 (centres unmarked) [A, 5-chloro-1,2,3,3a,4,8b-hexahydro-indeno[1,2-b]pyrrol-2-one]",18,75,
"O=C1CC2Cc3ccccc3C2N1 (centres unmarked) [Compound E, 1,2,3,3a,4,8bHexahydro-indeno[1,2b]pyrrol2-one, reference compound]",> 100,> 100,
"NCCCC(=O)O [GABA, gamma-aminobutyric acid]",,,hard to transmit through the blood-brain barrier
"CN1C(=O)CC2Cc3c(Cl)cccc3C21 (centres unmarked) [B, 5-chloro-1-methyl-1,2,3,3a,4,8b-hexahydro-indeno[1,2-a]pyrrol-2-one]",36,68,
"O=C1CC2Cc3ccc(F)cc3C2N1 (centres unmarked) [D, 7-Fluoro-1,2,3,3a,4,8b-hexahydro-indeno[1,2-b]pyrrol-2-one]",48,56,
